The data set has as its system CCRIS mutagenicity, Ames/micronucleus/aberration tests. Briefly: CCRIS mutagenicity studies.
Where [1] appears, read: Test System: AMES SALMONELLA TYPHIMURIUM, Strain/Indicator: TA98, Metabolic Activation: NONE, Method: PREINCUBATION
The mark [2] stands for this setting: Test System: AMES SALMONELLA TYPHIMURIUM, Strain/Indicator: TA100, Metabolic Activation: NONE, Method: PREINCUBATION
[3] abbreviates: Test System: AMES SALMONELLA TYPHIMURIUM, Strain/Indicator: TA1535, Metabolic Activation: NONE, Method: PREINCUBATION
Where [4] appears, read: Test System: AMES SALMONELLA TYPHIMURIUM, Strain/Indicator: TA98, Metabolic Activation: NONE, Method: STANDARD PLATE.

Activity calls are given as the source filed them. The rule behind the calls is not given here.

Regarding `O.O.O.O.O.O.O=[N+]([O-])O.O=[N+]([O-])O.[Zn]`, the mutagenic call is “inactive; negative” under setting [1]; “inactive; negative” (Test System: AMES SALMONELLA TYPHIMURIUM, Strain/Indicator: TA98, Metabolic Activation: RAT LIVER S-9, PHENOBARBITAL AND BETA-NAPHTHOFLAVONE, Method: PREINCUBATION); “inactive; negative” under setting [2]; “inactive; negative” (Test System: AMES SALMONELLA TYPHIMURIUM, Strain/Indicator: TA100, Metabolic Activation: RAT LIVER S-9, PHENOBARBITAL AND BETA-NAPHTHOFLAVONE, Method: PREINCUBATION); “inactive; negative” under setting [3]; “inactive; negative” (Test System: AMES SALMONELLA TYPHIMURIUM, Strain/Indicator: TA1535, Metabolic Activation: RAT LIVER S-9, PHENOBARBITAL AND BETA-NAPHTHOFLAVONE, Method: PREINCUBATION). In addition, the mutagenic call is “inactive; negative” (Test System: AMES SALMONELLA TYPHIMURIUM, Strain/Indicator: TA1537, Metabolic Activation: NONE, Method: PREINCUBATION); “inactive; negative” (Test System: AMES SALMONELLA TYPHIMURIUM, Strain/Indicator: TA1537, Metabolic Activation: RAT LIVER S-9, PHENOBARBITAL AND BETA-NAPHTHOFLAVONE, Method: PREINCUBATION); “inactive; negative” (Test System: AMES SALMONELLA TYPHIMURIUM, Strain/Indicator: TA1538, Metabolic Activation: NONE, Method: PREINCUBATION); “inactive; negative” (Test System: AMES SALMONELLA TYPHIMURIUM, Strain/Indicator: TA1538, Metabolic Activation: RAT LIVER S-9, PHENOBARBITAL AND BETA-NAPHTHOFLAVONE, Method: PREINCUBATION); “inactive; negative” (Test System: E.COLI, Strain/Indicator: WP2UVRA, Metabolic Activation: NONE, Method: PREINCUBATION); “inactive; negative” (Test System: E.COLI, Strain/Indicator: WP2UVRA, Metabolic Activation: RAT LIVER S-9, PHENOBARBITAL AND BETA-NAPHTHOFLAVONE, Method: PREINCUBATION).
In the case of `O=C(CCl)Nc1snc2cc(Cl)ccc12`, the mutagenic call under setting [4] is “inactive; negative”; the mutagenic call (Test System: AMES SALMONELLA TYPHIMURIUM, Strain/Indicator: TA98, Metabolic Activation: S-9, Method: STANDARD PLATE) was “active; positive”; the mutagenic call (Test System: AMES SALMONELLA TYPHIMURIUM, Strain/Indicator: TA100, Metabolic Activation: NONE, Method: STANDARD PLATE) was “active; positive”; the mutagenic call (Test System: AMES SALMONELLA TYPHIMURIUM, Strain/Indicator: TA100, Metabolic Activation: S-9, Method: STANDARD PLATE) is “active; positive”; the mutagenic call (Test System: AMES SALMONELLA TYPHIMURIUM, Strain/Indicator: TA1535, Metabolic Activation: NONE, Method: STANDARD PLATE) is “inactive; negative”; the mutagenic call (Test System: AMES SALMONELLA TYPHIMURIUM, Strain/Indicator: TA1535, Metabolic Activation: S-9, Method: STANDARD PLATE) was “inactive; negative”. Moreover, the mutagenic call by setting is: (Test System: AMES SALMONELLA TYPHIMURIUM, Strain/Indicator: TA1537, Metabolic Activation: NONE, Method: STANDARD PLATE) “active; positive”; (Test System: AMES SALMONELLA TYPHIMURIUM, Strain/Indicator: TA1537, Metabolic Activation: S-9, Method: STANDARD PLATE) “active; positive”.
Consider `C=CCC1(C(C)C#CCC)C(=O)N=C(O)N(C)C1=O` (configuration not stated), for which the mutagenic call is “inactive; negative” (Test System: AMES SALMONELLA TYPHIMURIUM, Strain/Indicator: TA97, Metabolic Activation: HAMSTER, LIVER, S-9, AROCLOR 1254 (10 OR 30%), Method: PREINCUBATION); “inactive; negative” (Test System: AMES SALMONELLA TYPHIMURIUM, Strain/Indicator: TA97, Metabolic Activation: NONE, Method: PREINCUBATION); “inactive; negative” (Test System: AMES SALMONELLA TYPHIMURIUM, Strain/Indicator: TA97, Metabolic Activation: RAT, LIVER, S-9, AROCLOR 1254 (10 OR 30%), Method: PREINCUBATION); “inactive; negative” (Test System: AMES SALMONELLA TYPHIMURIUM, Strain/Indicator: TA98, Metabolic Activation: HAMSTER, LIVER, S-9, AROCLOR 1254 (10 OR 30%), Method: PREINCUBATION); “inactive; negative” under setting [1]; “inactive; negative” (Test System: AMES SALMONELLA TYPHIMURIUM, Strain/Indicator: TA98, Metabolic Activation: RAT, LIVER, S-9, AROCLOR 1254 (10 OR 30%), Method: PREINCUBATION). Moreover, the mutagenic call is “inactive; negative” (Test System: AMES SALMONELLA TYPHIMURIUM, Strain/Indicator: TA100, Metabolic Activation: HAMSTER, LIVER, S-9, AROCLOR 1254 (10 OR 30%), Method: PREINCUBATION); “inactive; negative” under setting [2]; “inactive; negative” (Test System: AMES SALMONELLA TYPHIMURIUM, Strain/Indicator: TA100, Metabolic Activation: RAT, LIVER, S-9, AROCLOR 1254 (10 OR 30%), Method: PREINCUBATION); “inactive; negative” (Test System: AMES SALMONELLA TYPHIMURIUM, Strain/Indicator: TA1535, Metabolic Activation: HAMSTER, LIVER, S-9, AROCLOR 1254 (10 OR 30%), Method: PREINCUBATION); “inactive; negative” under setting [3]; “inactive; negative” (Test System: AMES SALMONELLA TYPHIMURIUM, Strain/Indicator: TA1535, Metabolic Activation: RAT, LIVER, S-9, AROCLOR 1254 (10 OR 30%), Method: PREINCUBATION).
As for `O=[N+]([O-])c1cc2cc3ccc4cccc5ccc(c2o1)c3c45`, the mutagenic call reads like this: (Test System: AMES SALMONELLA TYPHIMURIUM, Strain/Indicator: TA98(NR), Metabolic Activation: NONE, Method: STANDARD PLATE) “active; positive”; (Test System: AMES SALMONELLA TYPHIMURIUM, Strain/Indicator: TA98(NR), Metabolic Activation: RAT, LIVER, S-9, AROCLOR 1254, Method: STANDARD PLATE) “active; positive”; under setting [4], “active; positive”; (Test System: AMES SALMONELLA TYPHIMURIUM, Strain/Indicator: TA98, Metabolic Activation: RAT, LIVER, S-9, AROCLOR 1254, Method: STANDARD PLATE) “active; positive”.
`CCN(CC)[N+](=O)[O-]`: the mutagenic call (Test System: E. COLI, Strain/Indicator: WP2 (HCR-), Metabolic Activation: RAT, LIVER, MICROSOMES, PHENOBARBITAL) was “inactive; negative”.
As to `NC(=O)OCc1ccccc1`, the mutagenic call (Test System: E. COLI, Strain/Indicator: WP2 UVRA, Metabolic Activation: NONE, Method: FLUCTUATION TEST) is “inactive; negative”.
Take `Cc1ccc(N=O)cc1[N+](=O)[O-]`: the mutagenic call was “inactive; negative” (Test System: AMES SALMONELLA TYPHIMURIUM, Strain/Indicator: TA98, Metabolic Activation: NONE, Method: SUSPENSION/PLATE); “inactive; negative” (Test System: AMES SALMONELLA TYPHIMURIUM, Strain/Indicator: TA98, Metabolic Activation: RAT, LIVER, S-9, PHENOBARBITAL AND 5,6-BENZOFLAVONE, Method: SUSPENSION/PLATE); “inactive; negative” (Test System: AMES SALMONELLA TYPHIMURIUM, Strain/Indicator: TA100, Metabolic Activation: NONE, Method: SUSPENSION/PLATE); “inactive; negative” (Test System: AMES SALMONELLA TYPHIMURIUM, Strain/Indicator: TA100, Metabolic Activation: RAT, LIVER, S-9, PHENOBARBITAL AND 5,6-BENZOFLAVONE, Method: SUSPENSION/PLATE).
